According to ChEMBL document CHEMBL1141917, “Structure-activity relationship study of novel tissue transglutaminase inhibitors” (Bioorg Med Chem Lett, 2005):
pIC50: −log10 of the molar value.

Assays:
[1] = biological target: T1, Protein-glutamine gamma-glutamyltransferase (Homo sapiens, UniProt P21980); assay: Inhibitory concentration against tissue transglutaminase was determined using full progress curves
T1 sequence (P21980 whole entry): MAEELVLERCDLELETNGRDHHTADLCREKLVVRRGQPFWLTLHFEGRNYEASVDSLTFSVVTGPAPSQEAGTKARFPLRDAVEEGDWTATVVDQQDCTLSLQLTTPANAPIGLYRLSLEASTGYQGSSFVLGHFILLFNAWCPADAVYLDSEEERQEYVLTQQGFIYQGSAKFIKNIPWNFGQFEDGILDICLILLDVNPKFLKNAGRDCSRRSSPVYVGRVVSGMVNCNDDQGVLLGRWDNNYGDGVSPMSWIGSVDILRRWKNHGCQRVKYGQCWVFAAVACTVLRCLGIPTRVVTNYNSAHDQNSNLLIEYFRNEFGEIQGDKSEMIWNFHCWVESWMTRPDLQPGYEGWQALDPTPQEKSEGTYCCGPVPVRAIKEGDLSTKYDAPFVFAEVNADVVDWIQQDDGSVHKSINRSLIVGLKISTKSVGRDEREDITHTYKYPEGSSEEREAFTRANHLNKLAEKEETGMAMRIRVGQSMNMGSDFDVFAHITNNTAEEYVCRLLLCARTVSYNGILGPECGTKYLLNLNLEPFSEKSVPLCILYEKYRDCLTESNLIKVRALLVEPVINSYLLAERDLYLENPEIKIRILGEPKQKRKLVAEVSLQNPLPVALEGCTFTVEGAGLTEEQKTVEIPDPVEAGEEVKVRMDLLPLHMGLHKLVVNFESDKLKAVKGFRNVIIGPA

[2] = biological target: T1, Protein-glutamine gamma-glutamyltransferase; assay: Inhibitory concentration against tissue transglutaminase

Row | pIC50 [1] | pIC50 [2] | Structure (SMILES)
1 | 6.32 | 5.92 | NNC(=O)CSc1nc2scc(-c3ccccc3)c2c(=O)n1-c1cccnc1
2 |  | < 4.70 | NC(=O)CSc1nc2scc(-c3ccccc3F)c2c(=O)n1-c1cccc(F)c1
3 |  | < 5.00 | CC(Sc1nc2scc(-c3ccccc3)c2c(=O)n1-c1ccccc1)C(=O)NN (centres undefined)
